Reference: patent publication US20240261443A1, “COMPOUNDS AND COMPOSITIONS USEFUL AS RADIOTRACERS FOR IMAGING OF REACTIVE OXIDATIVE SPECIES” (Wake Forest University Health Sciences, priority 2019, published 2024)

Assays:
PC3 tumors = test: Standard biodistribution in PC3 tumor-bearing mice; assay type: in vivo
Description: Athymic nude mice (Taconic Farms) were housed in a pathogen-free facility of the Animal Research Program at Wake Forest School of Medicine under a 12:12-h light/dark cycle and fed ad libitum. All animal experiments were conducted under IACUC approved protocols in compliance with the guidelines for the care and use of research animals established by Wake Forest Medical School Animal Studies Committee. PC3 cells (1×10^5 cells suspended in 10 μL matrigel) were implanted in the left flank of nude mice (25-30 g) as described previously. Mice bearing subcutaneous human PCa PC3 tumors were separated into two groups for baseline and blockade studies (n=3/group) and underwent microPET imaging under ˜1% isoflurane-oxygen anesthesia (Reuter et al., Oxidative stress, inflammation, and cancer: How are they linked? Free radical biology & medicine. 2010; 49:1603-16. doi:10.1016/j.freeradbiomed; Sosa et al., Oxidative stress and cancer: An overview. Ageing Research Reviews. 2013; 12:376-90; Singh et al., Silibinin suppresses in vivo growth of human prostate carcinoma PC-3 tumor xenograft. Carcinogenesis. 2007; 28:2567-74). Mice were intravenously injected with ˜100±10 μCi of [^18F]KS1 and 45 min later were scanned for 20 min using a TriFoil microPET scanner. KS1 (15 mg/kg) was used as a blocking agent and was injected 45 min before the radiotracer injection. Standard biodistribution studies were conducted in mice bearing PCa tumors to confirm in vivo binding of [^18F]KS1. Mice were intravenously injected with [^18F]KS1 (˜100 μCi), and euthanized after 30 min and 60 min of tracer injections (3 mice/time point). Samples of tumor, blood, brain, heart, lung, liver, spleen, pancreas, kidney, muscle and bone were harvested, weighed, and gamma counted with a standard dilution of the injectate (Chu et al., Development of a PET Radiotracer for Noninvasive Imaging of the Reactive Oxygen Species, Superoxide, in vivo. Organic & biomolecular chemistry. 2014; 12:4421-31; Sai et al., Radiolabeling and initial biological evaluation of [(18)F]KBM-1 for imaging RAR-α receptors in neuroblastoma. Bioorganic & medicinal chemistry letters. 2017; 27:1425-7; Kumar et al., Radiosynthesis and in Vivo Evaluation of [11C]MPC-6827, the First Brain Penetrant Microtubule PET Ligand. Journal of Medicinal Chemistry. 2018; 61:2118-23). The percentage of the injected dose per gram of tissue (% ID/g) was calculated.

Ex vivo serum stability = assay type: in vitro ADME; details: human serum, 37° C., after 120 min of tracer synthesis
Description: The ex vivo serum stability of [^18F]KS1 and [^18F]KS2 were analyzed in human serum samples, following previously published methods (Sai et al., Peptide-based PET imaging of the tumor restricted IL13RA2 biomarker. Oncotarget 2017, 5; Sattiraju et al., IL13RA2 targeted alpha particle therapy against glioblastoma. Journal of Nuclear Medicine 2016, 57 (supplement 2), 634; Wang et al., Evaluation of F-18-labeled amino acid derivatives and [18F]FDG as PET probes in a brain tumor-bearing animal model. Nuclear Medicine and Biology 2005, 32 (4), 367-375). Briefly, radiotracer was added to the human serum sample, and incubated at 37° C. Radioactive serum mixture was injected into the QC-HPLC system at 5 min, 30 min, 1 h, 1.5 h, 2 h, 2.5 h, and 3 h post radiotracer synthesis. Radiolysis through defluorination and/or oxidation of the radiotracers (if any) can be seen as new radiochemical peaks at different retention times (Rt) than the original product peak (Jin et al., A promising F-18 labeled PET radiotracer (-)-[18F]VAT for assessing the VAChT in vivo. Journal of Nuclear Medicine 2015, 56 (supplement 3); Koglin et al., [F-18]BAY 85-8050: A novel tumor specific probe for PET imaging-Preclinical results. Journal of Nuclear Medicine 2010, 51 (supplement 2), 1535; […] et al., Imaging COX-2 expression in cancer using PET/SPECT radioligands: current status and future directions. […]

[1] = tested on: SCC-61 and PC3 cell lines; test: DCFDA intracellular ROS detection assay; assay type: cell-based, human
Text: For this, we used dichlorofluorescin diacetate (DCFDA) intracellular ROS detection assay kit and followed manufacture recommended protocol (ZHELEV et al., Docosahexaenoic Acid Sensitizes Leukemia Lymphocytes to Barasertib and Everolimus by ROS-dependent Mechanism Without Affecting the Level of ROS and Viability of Normal Lymphocytes. Anticancer Research 2016, 36 (4), 1673-1682). We studied two patient-derived tumor cell lines: SCC-61, […], and PC3, prostate cancer cell line. The maximum allowed mass for a typical clinical PET radiotracer is <100 μM (Schwarz et al., Radiochemistry and radiopharmacology. LIC-Nuclear Medicine and PET/CT: Technology and Techniques 2016, 11, 77), so we chose 10-100 μM as our concentration range for tracer-level assays. The lowest reported pharmacologic dose for ascorbate is 2.0 mM (Levine et al., Vitamin C: a concentration-function approach yields pharmacology and therapeutic discoveries. Adv Nutr 2011, 2 (2), 78-88), so we chose this dose for our pharmacological assays. We chose the ligand incubation times based on the maximum tracer uptake time (˜2 h) for a typical [^18F]-based PET radiotracer injection (Schlyer, PET tracers and radiochemistry. ANNALS-ACADEMY OF MEDICINE SINGAPORE 2004, 33 (2), 146-154).
Pharmacologic doses of ascorbate generates ROS, including H2O2 and trace amounts of labile iron extracellularly and/or intracellularly (Nauman et al., Systematic Review of Intravenous Ascorbate in Cancer Clinical Trials. Antioxidants (Basel) 2018, 7 (7), 89). We performed the same DCFDA assay with KS1 and ascorbate at pharmacological doses of 2 mM for 7 h in both SCC-61 and PC3 cell lines. ROS production was analyzed and reported (FIG. 11) using the similar measurements as above. Ligand specificity is commonly determined by pretreating the cells with high concentrations of blockers. We used superoxide dismutase (SOD), an enzyme that selectively suppresses accumulation of superoxide peroxide anions (Bielski et al., Chemistry of ascorbic acid radicals. in Ascorbic Acid: Chemistry, Metabolism, and Uses. Chapter 1982, 4, 81-100).

Compound	increased tumor uptake from 30 min to 60 min (PC3 tumors; 30 to 60 min post injection)	tumor: muscle (target: non-target) ratio (PC3 tumors; 30 min)	bone uptake (PC3 tumors; 30 min post injection)	tumor uptake (PC3 tumors; 30 min post injection)	tumor: muscle (target: non-target) ratio (PC3 tumors; 60 min)	bone uptake (PC3 tumors; 60 min post injection)	tumor uptake (PC3 tumors; 60 min post injection)	increase in the tumor: muscle ratio (PC3 tumors; from 30 min to 60 min)	intact in serum (Ex vivo serum stability)	ROS generation (DCFDA fluorescence) ([1]; 10 μM and 100 μM, SCC-61 and PC3)	fluorescence intensity (ROS generation) at pharmacological dose ([1]; 2 mM, 7 h, compared to 100 μM)	increased intensity subdued with SOD addition ([1]; 2 mM, SOD blocker)
O=C1O/C(=C/CCl)C(O)=C1OCc1ccc(OCC[18F])cc1 [[^18F]KS1]	~1.7 fold	4.31	1.741±0.71 % ID/g	4.23±0.531 % ID/g	8.84	1.381±0.561 % ID/g	6.81±0.33 % ID/g	> 50%	~90%			
O=C1O/C(=C/CCl)C(O)=C1OCc1ccc(OCCF)cc1 [KS1, (E)-5-(2-chloroethylidene)-3-(4-(2-fluoroethoxy)benzyloxy)-4-hydroxyfuran-2(5H)-one]										did not generate ROS	increased significantly	~3 fold
